Tests used:
[1] = target: T1, PDC-3 (Pseudomonas aeruginosa, UniProt P24735, T105A); test: Timed ESI-MS of acyl-enzyme formation, PDC-3; type: biochemical
T1 construct: The PDC-3 expression construct was created in a similar manner but starting with a previously described pBC SK(−) vector; made in house; host or cells: E. coli BL21-CodonPlus (DE3)-RP, pET24a(+)
Description: (§1) Timed ESI-MS experiments allow tracking of the reaction over time and determination of product modification, enabling the elucidation of mechanistic detail. Time courses were collected for both PDC-3 and PDC-88 with FEP (Fig. 4), CAZ (Fig. S1), TOL (Fig. S2), and ATM (Fig. S3). Substrate modification (here, loss of the R2 group) was determined based on differences between masses of apo and acyl-enzyme peaks (Fig. S4). […] Based on the differences in mass between the apo enzyme peaks, the acyl-enzyme peaks, and the molecular masses of each substrate, the mass of the adducts was determined and used to predict any portion of the substrate molecule that might be lost during the reaction (Fig. S4). As expected ([26][–][28]), all three cephalosporin antibiotics (FEP, CAZ, and TOL) lost their R2 groups during the reaction, while ATM (the sole monobactam) maintained its initial mass.
(§2) Five micrograms of PDC-3 or PDC-88 was incubated at the indicated molar ratio (1:2 to 1:100 PDC:β-lactam) in a total volume of 20 µL in 1× PBS at pH 7.4 at room temperature for the duration of the indicated time points. Reactions were quenched with the addition of 10 µL acetonitrile and added to 1 mL of 0.1% formic acid in water.
(§3) Data were collected using a Waters Synapt G2-Si quadrupole time-of-flight (Q-TOF) mass spectrometer and Waters Acquity UPLC BEH C18 1.7 µm column (2.1 by 100 mm). MassLynx V4.1 was used to deconvolute protein peaks. The tune settings for each sample were as follows: capillary voltage of 3.5 kV, sampling cone voltage of 35 V, source offset of 35 V, source temperature of 100°C, desolvation temperature of 500°C, cone gas flow rate of 100 L/h, desolvation gas flow rate of 800 L/h, and nebulizer bar at 6.0. Mobile phase A was 0.1% formic acid in water. Mobile phase B was 0.1% formic acid in acetonitrile. The mass accuracy of this system is ±5 Da.

[2] = target: T2, PDC-88 (Pseudomonas aeruginosa, UniProt P24735, DEL316-317/G27D/G391A/T105A/V205L/V356I); test: Timed ESI-MS of acyl-enzyme formation, PDC-88; type: biochemical
T2 construct: NdeI 5′-[…]-3ʹ and BamHI 5ʹ-[…]-3ʹ; His tag removed) (N); made in house; host or cells: E. coli BL21-CodonPlus (DE3)-RP, pET24a(+)
Description: as §1, §2, §3

[3] = tested on: NDM-1; set-up: method as in PMID 22005056; conditions: cited from earlier work
[4] = tested on: isogenic E. coli strains expressing PDC R2-loop deletion variants (PDC-88 to PDC-92); test: MIC changes across the five isogenic E. coli R2-loop deletion strains; type: cell-based, Escherichia coli; conditions: inhibitor at constant 4 µg/mL; R2-loop deletion variant strains
Description: Modal broth microdilution MICs (or median broth microdilution MICs where appropriate) were determined in accordance with Clinical and Laboratory Standards Institute (CLSI) M07 guidelines ([43]). Isogenic E. coli DH10B cells expressing the abovementioned plasmid-encoded PDC constructs were used. […] CLSI quality control strains Escherichia coli NCTC 13353, E. coli ATCC 35218, and Klebsiella pneumoniae ATCC 700603 were used during testing ([24]).

[5] = 60 min incubation, starting molar ratio 1:2
[6] = timed ESI-MS, 1 to 30 min (ATM to 60 min)

Structure (SMILES)	apo enzyme after incubation [1, 5]	acyl-enzyme complex formation and deacylation [1, 6]	apo enzyme after incubation [2, 5]	acyl-enzyme complex formation and deacylation [2, 6]	hydrolysis by NDM-1 [3]	restoration of FEP activity / susceptibility by inhibitor [4]
C[C@H]1[C@H](NC(=O)/C(=N\OC(C)(C)C(=O)O)c2csc(N)n2)C(=O)N1S(=O)(=O)O [ATM, aztreonam]	less than 10%	quickly formed acyl-enzyme complexes	no apo enzyme present	quickly formed acyl-enzyme complexes	does not hydrolyze	–
NC(=O)[C@@H]1CC[C@@H]2CN1C(=O)N2OS(=O)(=O)O [AVI, avibactam]	–	–	–	–	–	restoring FEP activity in all cases

Reference: paper PMC12217481, “Structure and mechanism of taniborbactam inhibition of the cefepime-hydrolyzing, partial R2-loop deletion Pseudomonas-derived cephalosporinase variant PDC-88” (Antimicrobial Agents and Chemotherapy, 2025)
